Laboratory results taken from BindingDB's records for doi:10.1021/acschembio.6b01129 (Promega Biosciences LLC, 2017).
Counter-ions that a name gives are not always drawn.

Molecular target: Oplophorus-luciferin 2-monooxygenase catalytic subunit (Oplophorus gracilirostris, UniProt Q9GV45)
Assay: NanoLuc Inhibition Assay
Protocol: NanoLuc enzyme was diluted to 0.4 ng/mL in CO2 independent media + 10% FBS to make the detection reagent. A 3× dilution series of each inhibitor was then made in the detection reagent. A "no inhibitor" control was also made for each sample. A total of 50 μL of each inhibitor dilution was mixed with 50 μL of NanoGlo buffer containing 20 μM furimazine (final furimazine concentration is 10 μM, which is atKM), and luminescence was measured. Each sample was normalized to the "no inhibitor" control.

Sequence of Oplophorus-luciferin 2-monooxygenase catalytic subunit (Q9GV45 whole entry): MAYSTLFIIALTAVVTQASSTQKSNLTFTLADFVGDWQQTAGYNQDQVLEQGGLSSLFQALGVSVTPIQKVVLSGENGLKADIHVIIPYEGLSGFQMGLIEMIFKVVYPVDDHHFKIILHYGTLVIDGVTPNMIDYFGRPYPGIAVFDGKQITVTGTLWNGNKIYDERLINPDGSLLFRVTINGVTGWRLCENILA

Row | IC50 [nM] | Structure (SMILES)
1 | 5.4 | CCc1cccc(N(CC)C(=O)Cn2c(C(=O)N[C@H]3CC[C@H](C(=O)OC)CC3)cc3ccccc32)c1 [Methyl trans-4-(1-(2-(ethyl(3-ethylphenyl)amino)-2-oxoethyl)-1H-indole-2carboxamido)cyclohexane-1-carboxylate (33)]
2 | 830 | CCN(C(=O)Cn1c(C(=O)NC2CCC(C(=O)NCCO)CC2)cc2sccc21)c1cccc(C)c1 (stereo not drawn) [4-(2-(Ethyl(m-tolyl)amino)-2-oxoethyl)-N-(trans-4-((2-hydroxyethyl)carbamoyl)cyclohexyl)-4Hthieno[3,2-b]pyrrole-5-carboxamide (35)]
3 | 17800 | CCN(C(=O)Cn1c(C(=O)NC2CCC(C(=O)NCCN(C)C)CC2)cc2sccc21)c1cccc(C)c1 (trans isomer) [N-(trans-4-((2-(dimethylamino)ethyl)carbamoyl)cyclohexyl)-4-(2-(ethyl(m-tolyl)amino)-2oxoethyl)-4H-thieno[3,2-b]pyrrole-5-carboxamide (36)]
4 | 4700 | CCOC(=O)Cc1ccc(NC(=O)c2cc3sccc3n2CC(=O)N(CC)c2cccc(C)c2)cc1 [Ethyl 2-(4-(4-(2-(ethyl(m-tolyl)amino)-2-oxoethyl)-4H-thieno[3,2-b]pyrrole-5carboxamido)phenyl)acetate (12)]
5 | 10700 | CCN(C(=O)Cn1c(C(=O)Nc2cccc(C(=O)OC)c2)cc2sccc21)c1cccc(C)c1 [Methyl 3-(4-(2-(ethyl(m-tolyl)amino)-2-oxoethyl)-4H-thieno[3,2-b]pyrrole-5carboxamido)benzoate (11)]
6 | 7700 | CCN(C(=O)Cn1cccc1C(=O)N[C@H]1CC[C@H](C(=O)OC)CC1)c1cccc(C)c1 [Methyl trans-4-(1-(2-(ethyl(m-tolyl)amino)-2-oxoethyl)-1H-pyrrole-2carboxamido)cyclohexane-1-carboxylate (28)]
7 | 690 | CCN(C(=O)Cn1c(C(=O)N[C@H]2CC[C@H](C(=O)OC)CC2)cc2sccc21)c1ccccc1C [Methyl trans-4-(4-(2-(ethyl(o-tolyl)amino)-2-oxoethyl)-4H-thieno[3,2-b]pyrrole-5carboxamido)cyclohexane-1-carboxylate (19)]
8 | 130 | CCN(C(=O)Cn1c(C(=O)N[C@H]2CC[C@H](C(=O)OC)CC2)cc2sccc21)c1cccc(C(C)C)c1 (mixture of isomers) [Methyl trans-4-(4-(2-(ethyl(3-isopropylphenyl)amino)-2-oxoethyl)-4H-thieno[3,2-b]pyrrole-5carboxamido)cyclohexane-1-carboxylate (23)]
9 | 2600 | CCN(C(=O)Cn1c(C(=O)N2CCCCC2)cc2sccc21)c1cccc(C)c1 [N-ethyl-2-(5-(piperidine-1-carbonyl)-4H-thieno[3,2-b]pyrrol-4-yl)-N-(m-tolyl)acetamide (7)]
10 | 5600 | CCCCCCN(C(=O)Cn1c(C(=O)NC2CCCCC2)cc2sccc21)c1cccc(C)c1 [N-cyclohexyl-4-(2-(hexyl(m-tolyl)amino)-2-oxoethyl)-4H-thieno[3,2-b]pyrrole-5-carboxamide (16)]
11 | 1200 | CCN(C(=O)Cn1c(C(=O)N2CCCC2)cc2sccc21)c1cccc(C)c1 [N-ethyl-2-(5-(pyrrolidine-1-carbonyl)-4H-thieno[3,2-b]pyrrol-4-yl)-N-(m-tolyl)acetamide (6)]
12 | 300 | CCCCNC(=O)C1CCC(NC(=O)c2cc3sccc3n2CC(=O)N(CC)c2cccc(C)c2)CC1 (stereo not drawn) [N-(trans-4-(butylcarbamoyl)cyclohexyl)-4-(2-(ethyl(m-tolyl)amino)-2-oxoethyl)-4H-thieno[3,2b]pyrrole-5-carboxamide (34)]
13 | 36 | CCN(C(=O)Cn1c(C(=O)N[C@H]2CC[C@H](C(=O)OC)CC2)cc2ccccc21)c1cccc(C)c1 [Methyl trans-4-(1-(2-(ethyl(m-tolyl)amino)-2-oxoethyl)-1H-indole-2-carboxamido)cyclohexane1-carboxylate (29)]
14 | 150 | CCN(C(=O)Cn1c(C(=O)N[C@H]2CC[C@H](C(=O)OC)CC2)cc2sccc21)c1cccc(C)c1 [trans-Methyl-4-(4-(2-(ethyl(m-tolyl)amino)-2-oxoethyl)-4H-thieno[3,2-b]pyrrole-5carboxamido)cyclohexane-1-carboxylate (8)]
15 | 590 | CCN(C(=O)Cn1c(C(=O)N[C@H]2CC[C@H](C(=O)OC)CC2)cc2occc21)c1cccc(C)c1 [Methyl trans-4-(4-(2-(ethyl(m-tolyl)amino)-2-oxoethyl)-4H-furo[3,2-b]pyrrole-5carboxamido)cyclohexane-1-carboxylate (31)]
16 | 94 | CCN(C(=O)Cn1c(C(=O)NC2CCC(C(=O)NCCCCCC(=O)O)CC2)cc2sccc21)c1cccc(C)c1 (stereo not drawn) [6-(trans-4-(4-(2-(Ethyl(m-tolyl)amino)-2-oxoethyl)-4H-thieno[3,2-b]pyrrole-5carboxamido)cyclohexane-1-carboxamido)hexanoic acid (41)]
17 | 20200 | COC(=O)[C@H]1CC[C@H](NC(=O)c2cc3sccc3n2CC(=O)N2CCCc3cc(C)ccc32)CC1 [Methyl trans-4-(4-(2-(6-methyl-3,4-dihydroquinolin-1(2H)-yl)-2-oxoethyl)-4Hthieno[3,2-b]pyrrole-5-carboxamido)cyclohexane-1-carboxylate (21)]
18 | 16500 | COCCOCCN(C(=O)Cn1c(C(=O)NC2CCCCC2)cc2sccc21)c1cccc(C)c1 [N-cyclohexyl-4-(2-((2-(2-methoxyethoxy)ethyl)(m-tolyl)amino)-2-oxoethyl)-4H-thieno[3,2b]pyrrole-5-carboxamide (14)]
19 | 230 | CCN(C(=O)Cn1c(C(=O)N[C@H]2CC[C@@H](C(=O)OC)CC2)cc2sccc21)c1cccc(C)c1 [Methyl-cis-4-(4-(2-(ethyl(m-tolyl)amino)-2-oxoethyl)-4H-thieno[3,2-b]pyrrole-5carboxamido)cyclohexane-1-carboxylate (9)]
20 | 240 | CCN(C(=O)Cn1c(C(=O)N[C@H]2CC[C@H](C(=O)OC)CC2)cc2sccc21)c1cccc(C(N)=O)c1 [Methyl trans-4-(4-(2-((3-carbamoylphenyl)(ethyl)amino)-2-oxoethyl)-4H-thieno[3,2-b]pyrrole5-carboxamido)cyclohexane-1-carboxylate (27)]
21 | 30 | CCN(C(=O)Cn1c(C(=O)NC2CCC(C(=O)NCCCCCCO)CC2)cc2sccc21)c1cccc(C)c1 (stereo not drawn) [4-(2-(Ethyl(m-tolyl)amino)-2-oxoethyl)-N-(trans-4-((6-hydroxyhexyl)carbamoyl)cyclohexyl)4H-thieno[3,2-b]pyrrole-5-carboxamide (39)]
22 | 63 | CCN(C(=O)Cn1c(C(=O)NC2CCC(C(=O)NCCCCCCN)CC2)cc2sccc21)c1cccc(C)c1 (stereo not drawn) [N-(trans-4-((6-aminohexyl)carbamoyl)cyclohexyl)-4-(2-(ethyl(m-tolyl)amino)-2-oxoethyl)-4Hthieno[3,2-b]pyrrole-5-carboxamide hydrochloride (40)]
23 | 890 | CCN(C(=O)Cn1c(C(=O)NC2CCC(C(=O)NCCCC(=O)O)CC2)cc2sccc21)c1cccc(C)c1 (trans isomer) [4-(trans-4-(4-(2-(Ethyl(m-tolyl)amino)-2-oxoethyl)-4H-thieno[3,2-b]pyrrole-5carboxamido)cyclohexane-1-carboxamido)butanoic acid (37)]
24 | 71 | CCN(C(=O)Cn1c(C(=O)NC2CCC(C(=O)NCCCCCCS(=O)(=O)O)CC2)cc2sccc21)c1cccc(C)c1 (trans isomer) [Sodium 6-(trans-4-(4-(2-(ethyl(m-tolyl)amino)-2-oxoethyl)-4H-thieno[3,2-b]pyrrole-5carboxamido)cyclohexane-1-carboxamido)hexane-1-sulfonate (43)]
25 | 45200 | Cc1cccc(NC(=O)Cn2c(C(=O)NC3CCCCC3)cc3sccc32)c1 [N-cyclohexyl-4-(2-oxo-2-(m-tolylamino)ethyl)-4H-thieno[3,2-b]pyrrole-5-carboxamide (13)]
26 | 160 | CCCCCCNC(=O)C1CCC(NC(=O)c2cc3sccc3n2CC(=O)N(CC)c2cccc(C)c2)CC1 (trans isomer) [4-(2-(Ethyl(m-tolyl)amino)-2-oxoethyl)-N-(trans-4-(hexylcarbamoyl)cyclohexyl)-4H-thieno[3,2b]pyrrole-5-carboxamide (38)]
27 | 31 | CCN(C(=O)Cn1c(C(=O)NC2CCC(C(=O)NCCCCCCCC(=O)O)CC2)cc2sccc21)c1cccc(C)c1 (stereo not drawn) [8-(trans-4-(4-(2-(Ethyl(m-tolyl)amino)-2-oxoethyl)-4H-thieno[3,2-b]pyrrole-5carboxamido)cyclohexane-1-carboxamido)octanoic acid (42)]
28 | 3400 | CCN(C(=O)Cn1c(C(=O)N[C@H]2CC[C@H](C(=O)OC)CC2)cc2ccc(OC)cc21)c1cccc(C)c1 [Methyl trans-4-(1-(2-(ethyl(m-tolyl)amino)-2-oxoethyl)-6-methoxy-1H-indole-2carboxamido)cyclohexane-1-carboxylate (30)]

Row | Structure (SMILES) | IC50 [nM]
29 | CCN(C(=O)Cn1c(C(=O)N[C@H]2CC[C@H](C(=O)NCCCCCCNC(=O)[C@H](CC(=O)O)NC(=O)[C@H](CC(=O)O)NC(=O)[C@H](CC(=O)O)NC(C)=O)CC2)cc2sccc21)c1cccc(C)c1 [(11S,14S,17S)-17-Acetamido-11,14-bis(carboxymethyl)-1-(trans-4-(4-(2-(ethyl(m-tolyl)amino)2-oxoethyl)-4H-thieno[3,2-b]pyrrole-5-carboxamido)cyclohexyl)-1,10,13,16-tetraoxo-2,9,12,15tetraazanonadecan-19-oic acid (46)] | 66
30 | CCN(C(=O)Cn1c(C(=O)N[C@H]2CC[C@H](C(=O)NCCCCCCNC(=O)c3ccc4c(c3)C3(OC4)c4ccc(O)cc4Oc4cc(O)ccc43)CC2)cc2sccc21)c1cccc(C)c1 [N-(trans-4-((6-(3',6'-dihydroxy-3-oxo-3H-spiro[isobenzofuran-1,9'-xanthene]-5(6)carboxamido)hexyl)carbamoyl)cyclohexyl)-4-(2-(ethyl(m-tolyl)amino)-2-oxoethyl)-4Hthieno[3,2-b]pyrrole-5-carboxamide (47)] | 49
